In US9242937B2, “Pharmaceutically active disubstituted pyridine derivatives” (Bayer Intellectual Property GmbH, priority 2011, dated 2016) one finds Kd and IC50 data, which are given here for ten compounds.

One test has as its target T1, CDK9/Cyclin T1 (Homo sapiens, UniProt P50750).
T1 construct: purchased Invitrogen
As to the kind of experiment: LanthaScreen Eu Kinase Binding Assay, CDK9/Cyclin T1. The settings on record: tracer 236, read-out: CDK9/Cyclin T1 (activity range), Kd. As for the experimental part:
This protocol describes how the LanthaScreen Eu Kinase Binding Assay was performed to determine dissociation constants (Kd) of compounds of general formula (I) and CDK/Cyclin complexes. The principle behind this assay is based upon the binding and displacement of an Alexa Fluor 647-labeled tracer, which binds to the active site of kinases. Binding of the tracer to the kinase is detected using a Eu-labeled antibody. Simultaneous binding of both the tracer and antibody to the kinase gives rise to a FRET-signal. Binding of an inhibitor to the kinase competes for binding with the tracer, resulting in a loss of FRET.
The compounds of general formula (I) summarized in Table 1 were diluted from a 10 mM DMSO stock solution 1:10 in a total volume of 15 μL DMSO. This compound predilution was then serial diluted 1:3 over 8 steps in DMSO and briefly spun down. Each compound solution was now diluted 1:33.33 in kinase buffer (HEPES: 20 mM, pH: 8.0; MgCl2: 10 mM; DTT: 1 mM; Brij-35: 0.01%), mixed thoroughly and spun down. For every sample, 5 μL of the diluted compound were mixed with 5 μL tracer working solution (e.g. 60 nM tracer 236 in kinase buffer for CDK2/Cyclin A) and 5 μL CDK/Cyclin/Anti-GST-AB-working solution (e.g. 15 nM CDK2/Cyclin A, 1:250 dilution of Anti-GST-AB in kinase buffer) in a well of a small volume 384 well plate (Corning Incorporated, Corning, N.Y., USA; order no. 3673). The tracer concentration was adjusted to its dissociation constant (Kd) for the CDK/Cyclin, which was 30 nM for CDK2/Cyclin A, CDK7/Cyclin H and CDK9/Cyclin T1, 20 nM for CDK8/Cyclin C, and 35 nM for CDK9/Cyclin K. For negative controls, in each well 5 μL of DMSO working solution (3% DMSO diluted in kinase buffer) was mixed with 5 μL Anti-GST-AB working solution (e.g. 1:250 dilution of Anti-GST-AB in kinase buffer for CDK2/Cyclin A) and 5 μL Tracer working solution (e.g. 60 nM Tracer 236 in kinase buffer for CDK2/Cyclin A). For positive controls, in each well 5 μL of DMSO working solution (3% DMSO diluted in kinase buffer) was mixed with 5 μL CDK/Cyclin/Anti-GST-AB-working solution: (e.g. 15 nM CDK2/Cyclin A, 1:250 dilution of Anti-GST-AB in kinase buffer) and 5 μL Tracer working solution (e.g. 60 nM Tracer 236 in kinase buffer for CDK2/Cyclin A). Positive and negative controls were calculated from at least 8 different sample wells. The 384 well plates were mixed in a Teleshaker plate mixer (Beckman Coulter, Brea, Calif., USA) at 2000 rpm for 40 sec, and incubated for 1 h at room temperature before reading. The FRET signal was measured at 340 nm excitation, 665 nm and 615 nm emission (for the kinase tracer and LanthaScreen Eu-AB, respectively) with an Envision spectrophotometer (Perkin Elmer, Waltham, Mass., USA) with 50 μs delay and 300 μs integration time. Kd values were determined from the sigmoidal dose response curves with the software Quattro Workflow (Quattro GmbH, Munich, Germany).
A general note: Time-resolved FRET reads energy transfer from a long-lived donor to a nearby acceptor.

The next test deals with MDAMB468 cells. The test is described as follows: Cell viability assay, MDAMB468 cells. The test is classed as cell-based. The note with it: Homo sapiens, MDA-MB-468; 72 h, Cell Titer Glo; read-out: Cell Viability - MDAMB468 cells (activity range), IC50. As for the experimental part: Hela- or MDAMB468-Cells were maintained in RPMI 1640 or McCoy's 5A cell culture medium+glutamine (PAN Biotech GmbH, Aidenbach, Germany; order no. P04-22100; P04-05500) supplemented with 10% fetal calf serum “Gold” (PAA Laboratories GmbH, Pasching, Austria; order no. A15-151) and grown at 37° C., 5% CO2. For the cell viability assay, cells were seeded with a density of 400 (Hela cells, DSMZ Braunschweig order no. ACC57) or 800 (MDAMB468 cells, ATCC order no. HTB-132) per well in 25 μL in 384-well plates (Greiner Bio-One, Frickenhausen, Germany; order no. 781080). After overnight incubation at 37° C./5% CO2, 25 nL or 75 nL compound were added to each sample well by using BIOMEK FXP Laboratory Automation Workstation (Beckman Coulter, USA). Wells with cells and 0.1% or 0.3% DMSO in culture medium were used as positive controls, wells with cells and 10 μM staurosporine in culture medium were used as negative controls. The cells were incubated with the compounds for 72 h at 37° C./5% CO2. For measurement of cell viability 25 μL Cell Titer Glo reagent (Promega, Madison, USA; order no. G7573), 1:2 diluted with cell culture medium, was added to each well. The 384 well-plates were placed for 2 min on a orbital microplate shaker and incubated for further 10 min at room temperature to stabilize the luminescence signal. Luminescence was measured by Envision Plate Reader (Perkin Elmer, USA). IC50 values were calculated with the software Excel Fit (IDBS, Guildford, UK) from 3-fold dilution series comprising at least 8 concentrations in duplicates.

For orientation: pIC50 means the IC50 on a negative log10 scale, so that one unit is a factor of ten.

Each structure is given as a SMILES string. pIC50, pKd: −log10 of the molar value.

T1 sequence (P50750 whole entry): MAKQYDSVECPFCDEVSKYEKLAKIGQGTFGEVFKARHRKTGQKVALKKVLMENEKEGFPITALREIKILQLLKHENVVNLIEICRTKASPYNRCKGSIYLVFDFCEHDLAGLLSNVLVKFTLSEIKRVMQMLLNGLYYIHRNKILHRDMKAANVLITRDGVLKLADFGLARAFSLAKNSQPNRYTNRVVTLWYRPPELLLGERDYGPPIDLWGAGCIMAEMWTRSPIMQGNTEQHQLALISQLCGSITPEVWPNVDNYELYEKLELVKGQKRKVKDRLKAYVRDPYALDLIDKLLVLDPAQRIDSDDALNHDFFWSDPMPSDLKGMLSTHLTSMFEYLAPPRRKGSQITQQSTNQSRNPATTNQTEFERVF
T1 sequence (O60563 whole entry partner): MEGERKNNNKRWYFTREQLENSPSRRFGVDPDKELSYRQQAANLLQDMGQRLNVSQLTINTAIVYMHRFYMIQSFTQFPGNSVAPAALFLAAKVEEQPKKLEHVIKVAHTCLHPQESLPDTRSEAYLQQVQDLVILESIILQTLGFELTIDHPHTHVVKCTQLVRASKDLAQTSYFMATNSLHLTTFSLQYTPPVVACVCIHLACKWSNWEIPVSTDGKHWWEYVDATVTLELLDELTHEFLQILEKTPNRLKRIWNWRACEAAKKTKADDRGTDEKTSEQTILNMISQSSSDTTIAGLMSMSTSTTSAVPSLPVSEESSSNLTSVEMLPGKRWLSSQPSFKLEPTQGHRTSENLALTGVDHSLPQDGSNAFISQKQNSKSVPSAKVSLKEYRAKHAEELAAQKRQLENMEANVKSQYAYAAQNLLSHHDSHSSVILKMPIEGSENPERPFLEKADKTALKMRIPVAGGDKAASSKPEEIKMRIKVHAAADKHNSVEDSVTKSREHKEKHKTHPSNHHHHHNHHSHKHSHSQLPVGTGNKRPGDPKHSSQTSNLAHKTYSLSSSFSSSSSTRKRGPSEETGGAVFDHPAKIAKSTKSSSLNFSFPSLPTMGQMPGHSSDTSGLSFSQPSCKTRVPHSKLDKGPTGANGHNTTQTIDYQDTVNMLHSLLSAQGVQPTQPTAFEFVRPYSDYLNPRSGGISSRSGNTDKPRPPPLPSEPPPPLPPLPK

`COc1ccccc1-c1ccnc(Nc2ccccc2)c1` [Compound B1, 4-(2-Methoxyphenyl)-N-phenylpyridin-2-amine]: at CDK9/Cyclin T1, the pKd was 5.00 to 6.00. Besides, the pIC50 with MDAMB468 cells is < 5.00.
In the same order, the values of `COc1ccccc1-c1ccnc(Nc2cccc(S(N)(=O)=O)c2)c1` [Compound D1, 3-[(4-(2-Methoxyphenyl)pyridin-2-yl)amino]benzenesulfonamide] are > 7.00 and 6.00 to 7.00.
In the same order, the values of `COc1cc(F)ccc1-c1ccnc(Nc2cccc(NS(C)(=O)=O)c2)c1` [Compound J1, N-[3-((4-(4-Fluoro-2-methoxyphenyl)pyridin-2-yl)amino)phenyl]-methanesulfonamide] are > 7.00 and 5.00 to 6.00.
The matching figures for `COc1cc(F)ccc1-c1ccnc(Nc2cccc(CS(=O)(=O)N(C)C)c2)c1` [Compound G3, 1-[3-((4-(4-Fluoro-2-methoxyphenyl)pyridin-2-yl)amino)phenyl]-N,N-dimethylmethanesulfonamide]: > 7.00 and 5.00 to 6.00.
Turning to `COc1ccccc1-c1ccnc(Nc2ccc(S(N)(=O)=O)cc2)c1` [Compound E1, 4-[(4-(2-Methoxyphenyl)pyridin-2-yl)amino]benzenesulfonamide], the pKd on CDK9/Cyclin T1 was 6.00 to 7.00. The pIC50 with MDAMB468 cells is 5.00 to 6.00.
In the same order, the values of `COc1ccccc1-c1ccnc(Nc2cccc(S(C)(=O)=O)c2)c1` [Compound F1, 4-(2-Methoxyphenyl)-N-(3-(methylsulfonyl)phenyl)pyridin-2-amine] are > 7.00 and 5.00 to 6.00.
The matching figures for `COc1ccccc1-c1ccnc(Nc2cccc([N+](=O)[O-])c2)c1` [Compound C1, 4-(2-Methoxyphenyl)-N-(3-nitrophenyl)pyridin-2-amine]: 6.00 to 7.00 and < 5.00.
The matching figures for `COc1cc(F)ccc1-c1ccnc(Nc2cccc(CS(N)(=O)=O)c2)c1` [Compound G1, [3-((4-(4-Fluoro-2-methoxyphenyl)pyridin-2-yl)amino)phenyl]-methanesulfonamide]: > 7.00 and 5.00 to 6.00.
Consider `COc1cc(F)ccc1-c1ccnc(Nc2cccc(NC(C)=O)c2)c1` [Compound J2, N-[3-((4-(4-Fluoro-2-methoxyphenyl)pyridin-2-yl)amino)phenyl]-acetamide], for which the pKd at CDK9/Cyclin T1 was > 7.00. In addition, the negative-log IC50 (pIC50) in the test on MDAMB468 cells was 5.00 to 6.00.
On to `CCCNS(=O)(=O)Cc1cccc(Nc2cc(-c3ccc(F)cc3OC)ccn2)c1` [Compound K1, 1-[3-((4-(4-Fluoro-2-methoxyphenyl)pyridin-2-yl)amino)phenyl]-N-propylmethanesulfonamide], for which the pKd on CDK9/Cyclin T1 is > 7.00. The pIC50 in the test with MDAMB468 cells was < 5.00.
